Test results taken from patent US9617283B2, “Bicyclic heterocycle compounds and their uses in therapy” (ASTEX THERAPEUTICS LIMITED, priority 2012, dated 2017).
pEC50: −log10 of the molar value. Structures can show the parent of a compound that is named as a salt. Where two headings read alike, the source gives them in different places.

Assays:
[1] = molecular target: T1, BIR3 domain of human XIAP (residues 252-350) (Homo sapiens, UniProt P98170); experiment: XIAP in vitro competitive displacement binding assay (fluorescence polarization); settings: 1 h, percent inhibition (PI) at 0.04 μM; read-out: Xiap IC50 or PI μM
T1 construct: BIR3 domain of human XIAP (residues 252-350); His-tag (cleaved yes); made in house; host or cells: Escherichia coli

[2] = system: EVSA-T (human breast carcinoma); experiment: Anti-proliferative activity, Alamar Blue assay, EVSA-T; type: cell-based
[3] = Homo sapiens, EVSA-T, 72 h, EVSA-T cell line, 72 hours, Alamar Blue; read-out: EVSA-T prolif
[4] = Homo sapiens, EVSA-T; read-out: EC50 in EVSA-T cell line assays

T1 sequence (P98170 252-350): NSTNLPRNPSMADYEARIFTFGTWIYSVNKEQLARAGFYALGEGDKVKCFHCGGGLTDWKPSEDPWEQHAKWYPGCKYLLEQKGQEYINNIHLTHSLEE

SMILES	inhibition at 0.04 µM [1] [%]	pEC50 [2, 3]	pEC50 [2, 4]	pEC50 ([2]; Homo sapiens, EVSA-T, read-out: EC50 in EVSA-T cell line assays)
CCCC(F)(F)c1cc2c(cn1)C(C)(C)CN2C(=O)CN1C[C@@H](C)NC[C@@H]1CN1C[C@H](C)CC1=O [Example 72, (4R)-1-{[(2R,5R)-1-{2-[6-(1,1-Difluorobutyl)-3,3-dimethyl-1H,2H,3H-pyrrolo[3,2-c]pyridin-1-yl]-2-oxoethyl}-5-methylpiperazin-2-yl]methyl}-4-methylpyrrolidin-2-one dihydrochloride]	79	7.57	> 6.00	
C[C@H]1CC(=O)N(C[C@H]2CN[C@H](C)CN2CC(=O)N2CC(C)(C)c3ncc(Cc4ccc(F)cc4F)cc32)C1 [Example 73, (4S)-1-{[(2R,5R)-1-(2-{6-[(2,4-Difluorophenyl)methyl]-3,3-dimethyl-1H,2H,3H-pyrrolo[3,2-b]pyridin-1-yl}-2-oxoethyl)-5-methylpiperazin-2-yl]methyl}-4-methylpyrrolidin-2-one dihydrochloride]	64	8.60	> 6.00	
C[C@H]1CC(=O)N(C[C@H]2CN[C@H](C)CN2CC(=O)N2CC(C)(C)c3cnc(Cc4ccc(F)cc4F)cc32)C1 [Example 74, (4S)-1-{[(2R,5R)-1-(2-{6-[(2,4-Difluorophenyl)methyl]-3,3-dimethyl-1H,2H,3H-pyrrolo[3,2-c]pyridin-1-yl}-2-oxoethyl)-5-methylpiperazin-2-yl]methyl}-4-methylpyrrolidin-2-one dihydrochloride]	71	8.74	> 6.00	
CCCC(F)(F)c1cc2c(cn1)C(C)(C)CN2C(=O)CN1C[C@@H](C)NC[C@@H]1CN1C[C@@H](C)CC1=O [Example 75, (4S)-1-{[(2R,5R)-1-{2-[6-(1,1-Difluorobutyl)-3,3-dimethyl-1H,2H,3H-pyrrolo[3,2-c]pyridin-1-yl]-2-oxoethyl}-5-methylpiperazin-2-yl]methyl}-4-methylpyrrolidin-2-one dihydrochloride]	75	7.85	> 6.00	
C[C@@H]1CN(CC(=O)N2CC(C)(C)c3cnc(Cc4ccc(F)cc4F)cc32)[C@@H](CN2Cc3ccccc3C2=O)CN1 [Example 77, 2-{[(2R,5R)-1-(2-{6-[(2,4-Difluorophenyl)methyl]-3,3-dimethyl-1H,2H,3H-pyrrolo[3,2-c]pyridin-1-yl}-2-oxoethyl)-5-methylpiperazin-2-yl]methyl}-2,3-dihydro-1H-isoindol-1-one dihydrochloride]	90	9.77	> 6.00	
CCCC(F)(F)c1cc2c(cn1)C(C)(C)CN2C(=O)CN1C[C@@H](C)NC[C@@H]1CN1Cc2ccncc2C1=O [Example 78, 2-{[(2R,5R)-1-{2-[6-(1,1-Difluorobutyl)-3,3-dimethyl-1H,2H,3H-pyrrolo[3,2-c]pyridin-1-yl]-2-oxoethyl}-5-methylpiperazin-2-yl]methyl}-1H,2H,3H-pyrrolo[3,4-c]pyridin-3-one dihydrochloride]	64	8.47	> 6.00	
C[C@@H]1CN(CC(=O)N2CC(C)(C)c3cnc(Cc4ccc(F)cc4F)cc32)[C@@H](CN2C[C@H](C)N(C)CC2=O)CN1 [Example 81, (5S)-1-{[(2R,5R)-1-(2-{6-[(2,4-Difluorophenyl)methyl]-3,3-dimethyl-1H,2H,3H-pyrrolo[3,2-c]pyridin-1-yl}-2-oxoethyl)-5-methylpiperazin-2-yl]methyl}-4,5-dimethylpiperazin-2-one dihydrochloride]	52	8.55	> 6.00	
C[C@@H]1CN(CC(=O)N2CC(C)(C)c3ncc([C@H](O)c4ccc(F)cc4)cc32)[C@@H](CN2Cc3ccccc3C2=O)CN1 [Example 84, 2-{[(2R,5R)-1-(2-{6-[(R)-(4-Fluorophenyl)(hydroxy)methyl]-3,3-dimethyl-1H,2H,3H-pyrrolo[3,2-b]pyridin-1-yl}-2-oxoethyl)-5-methylpiperazin-2-yl]methyl}-2,3-dihydro-1H-isoindol-1-one dihydrochloride]	51	6.82	> 6.00	
C[C@@H]1CN(CC(=O)N2CC(C)(C)c3cnc(Cc4ccc(F)cc4F)cc32)[C@@H](CN2C[C@@H](C)N(C)CC2=O)CN1 [Example 85, (5R)-1-{[(2R,5R)-1-(2-{6-[(2,4-Difluorophenyl)methyl]-3,3-dimethyl-1H,2H,3H-pyrrolo[3,2-c]pyridin-1-yl}-2-oxoethyl)-5-methylpiperazin-2-yl]methyl}-4,5-dimethylpiperazin-2-one dihydrochloride]	45	8.35	> 6.00	
COc1ccc2c(c1)CN(C[C@H]1CN[C@H](C)CN1CC(=O)N1CC(C)(C)c3cnc(Cc4ccc(F)cc4)cc31)C2=O [Example 92, 2-{[(2R,5R)-1-(2-{6-[(4-Fluorophenyl)methyl]-3,3-dimethyl-1H,2H,3H-pyrrolo[3,2-c]pyridin-1-yl}-2-oxoethyl)-5-methylpiperazin-2-yl]methyl}-5-methoxy-2,3-dihydro-1H-isoindol-1-one dihydrochloride]	93	9.59	> 6.00	
C[C@@H]1CN(CC(=O)N2CC(C)(C)c3ncc([C@@H](O)c4ccc(F)cc4)cc32)[C@@H](CN2Cc3ccccc3C2=O)CN1 [Example 96, 2-{[(2R,5R)-1-(2-{6-[(S)-(4-Fluorophenyl)(hydroxy)methyl]-3,3-dimethyl-1H,2H,3H-pyrrolo[3,2-b]pyridin-1-yl}-2-oxoethyl)-5-methylpiperazin-2-yl]methyl}-2,3-dihydro-1H-isoindol-1-one]	62	7.51	> 6.00	
C[C@@H]1CN(CC(=O)N2CC(C)(C)c3ncc(Cc4ccc(F)cc4F)cc32)[C@@H](CN2C[C@H](C)N(C)CC2=O)CN1 [Example 98, (5S)-1-{[(2R,5R)-1-(2-{6-[(2,4-Difluorophenyl)methyl]-3,3-dimethyl-1H,2H,3H-pyrrolo[3,2-b]pyridin-1-yl}-2-oxoethyl)-5-methylpiperazin-2-yl]methyl}-4,5-dimethylpiperazin-2-one dihydrochloride]	39	8.46	> 6.00	
CCCC(F)(F)c1cc2c(nn1)C(C)(C)CN2C(=O)CN1C[C@@H](C)NC[C@@H]1CN1Cc2ccc(F)cc2C1=O [Example 99, 2-{[(2R,5R)-1-{2-[3-(1,1-Difluorobutyl)-7,7-dimethyl-5H,6H,7H-pyrrolo[3,2-c]pyridazin-5-yl]-2-oxoethyl}-5-methylpiperazin-2-yl]methyl}-6-fluoro-2,3-dihydro-1H-isoindol-1-one dihydrochloride]	65	8.18	> 6.00	
C[C@@H]1CN(CC(=O)N2CC(C)(C)c3ncc(Cc4ccc(F)cc4F)cc32)[C@@H](CN2C(=O)CO[C@@H](C)[C@H]2C)CN1 [Example 100, (5R,6S)-4-{[(2R,5R)-1-(2-{6-[(2,4-Difluorophenyl)methyl]-3,3-dimethyl-1H,2H,3H-pyrrolo[3,2-b]pyridin-1-yl}-2-oxoethyl)-5-methylpiperazin-2-yl]methyl}-5,6-dimethylmorpholin-3-one dihydrochloride]	41	8.72	> 6.00	
COC[C@@H]1CN(C[C@H]2CN[C@H](C)CN2CC(=O)N2CC(C)(C)c3ncc(Cc4ccc(F)cc4)cc32)C(=O)CO1 [Example 102, (6S)-4-{[(2R,5R)-1-(2-{6-[(4-Fluorophenyl)methyl]-3,3-dimethyl-1H,2H,3H-pyrrolo[3,2-b]pyridin-1-yl}-2-oxoethyl)-5-methylpiperazin-2-yl]methyl}-6-(methoxymethyl)morpholin-3-one dihydrochloride]	51	8.16		> 6.00
C[C@@H]1CN(CC(=O)N2CC(C)(C)c3ncc(Cc4ccc(F)cc4F)cc32)[C@@H](CN2Cc3cc(O)ccc3C2=O)CN1 [Example 105, 2-{[(2R,5R)-1-(2-{6-[(2,4-Difluorophenyl)methyl]-3,3-dimethyl-1H,2H,3H-pyrrolo[3,2-b]pyridin-1-yl}-2-oxoethyl)-5-methylpiperazin-2-yl]methyl}-5-hydroxy-2,3-dihydro-1H-isoindol-1-one dihydrochloride]	90	8.19	> 6.00	
C[C@@H]1CN(CC(=O)N2CC(C)(C)c3ncc(Cc4ccc(F)cc4F)cc32)[C@@H](CN2Cc3cc(C#N)ccc3C2=O)CN1 [Example 106, 2-{[(2R,5R)-1-(2-{6-[(2,4-Difluorophenyl)methyl]-3,3-dimethyl-1H,2H,3H-pyrrolo[3,2-b]pyridin-1-yl}-2-oxoethyl)-5-methylpiperazin-2-yl]methyl}-1-oxo-2,3-dihydro-1H-isoindole-5-carbonitrile dihydrochloride]	90	8.68	> 6.00	
C[C@@H]1CN(CC(=O)N2CC(C)(C)c3cnc(Cc4ccc(F)cc4)cc32)[C@@H](CN2C[C@H](C)N(C)CC2=O)CN1 [Example 107, (5S)-1-{[(2R,5R)-1-(2-{6-[(4-Fluorophenyl)methyl]-3,3-dimethyl-1H,2H,3H-pyrrolo[3,2-c]pyridin-1-yl}-2-oxoethyl)-5-methylpiperazin-2-yl]methyl}-4,5-dimethylpiperazin-2-one dihydrochloride]	67	7.96	> 6.00	
C[C@@H]1CN(CC(=O)N2CC(C)(C)c3nnc(Cc4ccc(F)cc4F)cc32)[C@@H](CN2Cc3cc(O)ccc3C2=O)CN1 [Example 108, 2-{[(2R,5R)-1-(2-{3-[(2,4-Difluorophenyl)methyl]-7,7-dimethyl-5H,6H,7H-pyrrolo[3,2-c]pyridazin-5-yl}-2-oxoethyl)-5-methylpiperazin-2-yl]methyl}-5-hydroxy-2,3-dihydro-1H-isoindol-1-one dihydrochloride]	88	7.96	> 6.00	
